Consider 1 compound from BindingDB's records for patent US12391702 (Bristol-Myers Squibb, 2025).

In this assay the target is T1, Interleukin-1 receptor-associated kinase 4 (Homo sapiens, UniProt Q9NWZ3).
T1 sequence (Q9NWZ3 whole entry): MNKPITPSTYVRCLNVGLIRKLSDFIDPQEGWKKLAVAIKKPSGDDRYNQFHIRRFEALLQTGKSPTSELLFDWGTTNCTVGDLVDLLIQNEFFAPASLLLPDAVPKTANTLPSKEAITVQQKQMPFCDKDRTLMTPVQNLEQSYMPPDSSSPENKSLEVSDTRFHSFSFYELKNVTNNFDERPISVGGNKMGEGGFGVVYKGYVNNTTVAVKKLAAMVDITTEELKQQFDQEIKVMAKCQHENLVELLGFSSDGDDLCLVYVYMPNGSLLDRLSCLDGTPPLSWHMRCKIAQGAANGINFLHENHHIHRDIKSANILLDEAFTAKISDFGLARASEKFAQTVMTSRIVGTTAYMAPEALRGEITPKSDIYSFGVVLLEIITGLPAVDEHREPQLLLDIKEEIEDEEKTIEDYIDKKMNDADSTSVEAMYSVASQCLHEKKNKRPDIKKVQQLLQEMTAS
Kind of assay: IRAK4 Inhibition Assay. Here is the method: The assays were performed in U-bottom 384-well plates. The final assay volume was 30 μL prepared from 15 μL additions of enzyme and substrates (fluoresceinated peptide and ATP) and test compounds in assay buffer (20 mM HEPES pH 7.2, 10 mM MgCl2, 0.015% Brij 35 and 4 mM DTT). The reaction was initiated by the combination of IRAK4 with substrates and test compounds. The reaction mixture was incubated at room temperature for 60 min. and terminated by adding 45 μL of 35 mM EDTA to each sample. The reaction mixture was analyzed on the Caliper LABCHIP 3000 (Caliper, Hopkinton, MA) by electrophoretic separation of the fluorescent substrate and phosphorylated product. Inhibition data were calculated by comparison to no enzyme control reactions for 100% inhibition and vehicle-only reactions for 0% inhibition. The final concentrations of reagents in the assays are ATP, 500 μM; FL-IPTSPITTTYFFFKKK peptide 1.5 μM; IRAK4, 0.6 nM; and DMSO, 1.6%.

As a reminder, the IC50 is the concentration at which inhibition is half-maximal. Turning to `CC(C)Nc1c(C(=O)NC[C@@H](F)C(C)(C)O)cnc2c1Oc1cc(C#N)ccc1O2` [US12391702, Example 1], the IC50 stood at 1180 nM.
